Reference: patent publication US20250221413A1, “Use and Preparation Method of Sulfoxamyl, and Oxidation System” (priority 2023, published 2025)
Values after ≈ are worked out from the molar mass of the structure shown. Values joined by “and” are separate entries in the source; they are usually repeats but may differ in a detail not shown here. Identical values can stand only once. Like-named read-outs stand apart in the source and are kept apart here.

How the values were obtained:
Meloidogyne incognita = assay: Indoor toxicity test against Meloidogyne incognita second-instar larvae (J2)
Experimental: Materials: the tested nematodes were collected from three different areas, namely cucumber crops in Dawenkou Town, Tai'an City, Shandong Province, and were all identified as southern root-knot nematodes (Meloidogyne incognita). The diseased roots were washed, cut into small sections of 0.5 cm to 1 cm, rinsed in 1% NaClO solution for about 30 s to 60 s, and rinsed with 200-mesh and 500-mesh sieves to collect nematode eggs for later use. The collected eggs were incubated at 25° C. using the Bayman funnel method and the second-instar larvae were collected 1 time per 24 h to ensure that the second-instar larvae selected each time were fresh and of consistent vitality.
The agent was 98% sulfoxamyl technical, and the comparison agents were 96% oxamyl technical and 87% fosthiazate technical.
The preparation for the agent was in accordance with the provisions for preparation of the liquid medicine in the Agricultural Industry Standard of the People's Republic of China NYT 1833.1-2009 “Guideline for laboratory bioassay of pesticides”, as shown in Table 6.
Methods: according to the experimental plan, the test agent was diluted to different mass concentrations, and 0.5 mL of the agent solution and 0.5 mL of the nematode solution (containing about 100 nematodes) were added into a 24-well cell culture plate. The treatment with each concentration of the agent was repeated 4 times, and auxiliary agent control and blank control were also conducted. […]

[1] = test system: Meloidogyne incognita eggs; assay: Inhibitory effect on hatching of Meloidogyne incognita eggs; format: in vivo; conditions: 7 d
SD rats = assay: Acute oral toxicity test, single oral fixed-dose procedure; format: in vivo; conditions: single oral dose 500 mg/kg
Experimental: Materials: the test agent 98% sulfoxamyl technical, batch number 20230708-1, was provided by Ningxia Hugerise Chemical Co., Ltd. Experimental animals: SPF-grade SD rats, half male and half female, weighing 180 g to 220 g, were provided by Jinan Pengyue Experimental Animal Breeding Co., Ltd., license number SCXK (Lu) 20190003. Rearing environment: the rats were housed in an SPF-grade animal room with free access to water and food, a temperature of 20° C. to 25° C., a humidity of 40% to 60%, and a 12 h/12 h light cycle. Feed: conventional pellet feed was provided by Jinan Pengyue Experimental Animal Breeding Co., Ltd.
The test was conducted in accordance with “Toxicological test methods of pesticides for registration, GB15670.5-2017”, “Acute toxicity test, GB15193.3-2003” and relevant acute toxicity research data.
Methods: a single oral fixed-dose procedure was conducted to preliminarily explore the toxic dose range of sulfoxamyl. LD50 and confidence limits were calculated by using the probability unit method (Bliss method). SD rats were randomly divided into 5 groups, 10 rats in each group, half of them were male and half were female. […] The common ratio value among each dose group was 0.75. After a single oral administration, the mortality rate of the experimental animals was recorded within 24 h and 14 days after administration, while the general condition of the animals was observed, and the food intake and body weight changes were recorded.

[2] = Meloidogyne incognita, 24 h, 50 mg/L
[3] = Meloidogyne incognita, 24 h, 100 mg/L
[4] = Meloidogyne incognita, 24 h, read-out: Corrected mortality, 50 mg/L, 24 h
[5] = Meloidogyne incognita, 24 h, read-out: Corrected mortality, 100 mg/L, 24 h
[6] = Meloidogyne incognita, 168 h, egg hatching

CCOP(=O)(SC(C)CC)N1CCSC1=O (stereo not shown) [Fosthiazate, fosthiazate]
Corrected mortality (Meloidogyne incognita; 3.125 mg/L, 24 h): 17.51% and 18.63% and 12.52%
Death count (Meloidogyne incognita; 3.125 mg/L, 24 h): 24 and 38 and 26 and 20
Mortality (Meloidogyne incognita; 3.125 mg/L, 24 h): 23.90% and 25.74% and 16.13%
Corrected mortality (Meloidogyne incognita; 6.25 mg/L, 24 h): 33.03% and 29.63% and 42.23%
Death count (Meloidogyne incognita; 6.25 mg/L, 24 h): 36 and 60 and 39 and 58
Mortality (Meloidogyne incognita; 6.25 mg/L, 24 h): 38.22% and 35.78% and 44.62%
Corrected mortality (Meloidogyne incognita; 12.5 mg/L, 24 h): 57.70% and 46.22% and 41.17% and 62.23%
Death count (Meloidogyne incognita; 12.5 mg/L, 24 h): 80 and 64 and 69 and 74
Mortality (Meloidogyne incognita; 12.5 mg/L, 24 h): 50.39% and 46.31% and 63.79%
Corrected mortality (Meloidogyne incognita; 25 mg/L, 24 h): 74.92% and 67.46% and 64.47%
Death count (Meloidogyne incognita; 25 mg/L, 24 h): 68 and 93 and 116 and 91
Mortality (Meloidogyne incognita; 25 mg/L, 24 h): 76.86% and 70.30% and 65.94%
Corrected mortality (Meloidogyne incognita; 50 mg/L, 24 h): 79.38% and 77.71% and 74.49%
Death count (Meloidogyne incognita; 50 mg/L, 24 h): 84 and 132 and 94 and 105
Mortality (Meloidogyne incognita; 50 mg/L, 24 h): 80.98% and 79.66% and 75.54%
Corrected mortality (Meloidogyne incognita; 100 mg/L, 24 h): 75.25% and 86.39% and 79.87%
Death count (Meloidogyne incognita; 100 mg/L, 24 h): 117 and 98 and 141 and 92
Mortality (Meloidogyne incognita; 100 mg/L, 24 h): 77.17% and 87.58% and 80.70%
LC90 (Meloidogyne incognita; 24 h): 146.50 µg/mL (≈ 517 µM)
LC50 (Meloidogyne incognita; Meloidogyne incognita, 24 h): 14.6 µg/mL (≈ 51.4 µM)
mortality at 3.125 µg/mL (Meloidogyne incognita; Meloidogyne incognita, 24 h, 3.125 mg/L): 16.6%
mortality at 6.25 µg/mL (Meloidogyne incognita; Meloidogyne incognita, 24 h, 6.25 mg/L): 28.6%
mortality at 12.5 µg/mL (Meloidogyne incognita; Meloidogyne incognita, 24 h, 12.5 mg/L): 59.7%
mortality at 25 µg/mL (Meloidogyne incognita; Meloidogyne incognita, 24 h, 25 mg/L): 64.2%
mortality at 50 µg/mL (Meloidogyne incognita; [2]): 82.3%
mortality at 100 µg/mL (Meloidogyne incognita; [3]): 80.1%
mortality at 3.125 µg/mL (Meloidogyne incognita; Meloidogyne incognita, 24 h, read-out: Corrected mortality, 3.125 mg/L, 24 h): 12.4%
mortality at 6.25 µg/mL (Meloidogyne incognita; Meloidogyne incognita, 24 h, read-out: Corrected mortality, 6.25 mg/L, 24 h): 25%
mortality at 25 µg/mL (Meloidogyne incognita; Meloidogyne incognita, 24 h, read-out: Corrected mortality, 25 mg/L, 24 h): 62.4%
mortality at 50 µg/mL (Meloidogyne incognita; [4]): 81.5%
mortality at 100 µg/mL (Meloidogyne incognita; [5]): 79.2%

CNC(=O)O/N=C(\SC)C(=O)N(C)C [Oxamyl, N,N-dimethyl-2-[[[(methylamino)carbonyl]oxy]imino]-2-(methylthio)acetamide]
Number of hatched eggs/7 d ([1]; 25 mg/L): 81 and 92 and 90
Number of unhatched eggs/7 d ([1]; 25 mg/L): 47 and 36 and 42
Number of hatched eggs/7 d ([1]; 50 mg/L): 83 and 86 and 78
Number of unhatched eggs/7 d ([1]; 50 mg/L): 53 and 52
Number of hatched eggs/7 d ([1]; 100 mg/L): 62 and 72 and 71
Number of unhatched eggs/7 d ([1]; 100 mg/L): 68 and 60 and 58
Number of hatched eggs/7 d ([1]; 200 mg/L): 26 and 20 and 23
Number of unhatched eggs/7 d ([1]; 200 mg/L): 97 and 101 and 103
Number of hatched eggs/7 d ([1]; 400 mg/L): 12 and 15 and 11
Number of unhatched eggs/7 d ([1]; 400 mg/L): 113 and 117 and 121
IC50 [1, 6]: 91.6 µg/mL (≈ 418 µM)
IC90 [1, 6]: 480 µg/mL (≈ 2190 µM)
Death count (SD rats): 6/6
Main clinical symptom (SD rats): All rats died within 5 min
Corrected mortality (Meloidogyne incognita; 25 mg/L, 24 h): 6.89% and 2.76% and 3.40% and 3.65%
Mortality (Meloidogyne incognita; 25 mg/L, 24 h): 8.04% and 3.96% and 4.59% and 4.84%
Corrected mortality (Meloidogyne incognita; 25 mg/L, 48 h): 12.13% and 16.63% and 6.92% and 6.73%
Death count (Meloidogyne incognita; 25 mg/L, 48 h): 15 and 18 and 9 and 10
Mortality (Meloidogyne incognita; 25 mg/L, 48 h): 13.39% and 17.82% and 8.26% and 8.06%
Corrected mortality (Meloidogyne incognita; 25 mg/L, 72 h): 23.34% and 15.88% and 15.37%
Death count (Meloidogyne incognita; 25 mg/L, 72 h): 20 and 25 and 19 and 21
Mortality (Meloidogyne incognita; 25 mg/L, 72 h): 24.75% and 17.43% and 16.94%
Corrected mortality (Meloidogyne incognita; 50 mg/L, 24 h): 29.73% and 26.88% and 16.90%
Mortality (Meloidogyne incognita; 50 mg/L, 24 h): 30.60% and 27.78% and 17.92%
Corrected mortality (Meloidogyne incognita; 50 mg/L, 48 h): 44.73% and 39.88% and 31.09%
Mortality (Meloidogyne incognita; 50 mg/L, 48 h): 45.52% and 40.74% and 32.08%
Corrected mortality (Meloidogyne incognita; 50 mg/L, 72 h): 55.90% and 59.44% and 45.22%
Death count (Meloidogyne incognita; 50 mg/L, 72 h): 41 and 76 and 65 and 49
Mortality (Meloidogyne incognita; 50 mg/L, 72 h): 56.72% and 60.19% and 46.23%
Corrected mortality (Meloidogyne incognita; 100 mg/L, 24 h): 48.91% and 58.66% and 60.23%
Death count (Meloidogyne incognita; 100 mg/L, 24 h): 74 and 54 and 71 and 68
Mortality (Meloidogyne incognita; 100 mg/L, 24 h): 49.54% and 59.17% and 60.71%
Corrected mortality (Meloidogyne incognita; 100 mg/L, 48 h): 76.73% and 76.33% and 80.98%
Death count (Meloidogyne incognita; 100 mg/L, 48 h): 90 and 84 and 92 and 91
Mortality (Meloidogyne incognita; 100 mg/L, 48 h): 77.06% and 76.67% and 81.25%
Corrected mortality (Meloidogyne incognita; 100 mg/L, 72 h): 75.93% and 81.31% and 83.87% and 97.27%
Death count (Meloidogyne incognita; 100 mg/L, 72 h): 97 and 89 and 101 and 109
Mortality (Meloidogyne incognita; 100 mg/L, 72 h): 76.38% and 81.65% and 84.17% and 97.32%
Corrected mortality (Meloidogyne incognita; 200 mg/L, 24 h): 69.90% and 86.37% and 84.57% and 94.67%
Death count (Meloidogyne incognita; 200 mg/L, 24 h): 78 and 90 and 89
Mortality (Meloidogyne incognita; 200 mg/L, 24 h): 70.27% and 86.54% and 84.76% and 94.74%
Corrected mortality (Meloidogyne incognita; 200 mg/L, 48 h): 90.24% and 92.27% and 97.86%
Death count (Meloidogyne incognita; 200 mg/L, 48 h): 104 and 94 and 97 and 93
Mortality (Meloidogyne incognita; 200 mg/L, 48 h): 90.38% and 92.38% and 97.89%
Corrected mortality (Meloidogyne incognita; 200 mg/L, 72 h): 94.12% and 94.18% and 98.93%
Death count (Meloidogyne incognita; 200 mg/L, 72 h): 108 and 98 and 99 and 94
Mortality (Meloidogyne incognita; 200 mg/L, 72 h): 94.23% and 94.29% and 98.95%
Death count (Meloidogyne incognita; 400 mg/L, 24 h): 99 and 101 and 117 and 112
Death count (Meloidogyne incognita; 400 mg/L, 48 h): 101 and 108 and 119 and 117
Death count (Meloidogyne incognita; 400 mg/L, 72 h): 103 and 110 and 120 and 118
LC90 (Meloidogyne incognita; 24 h): 273.89 µg/mL (≈ 1250 µM)
LC90 (Meloidogyne incognita; 48 h): 181.92 µg/mL (≈ 830 µM)
LC90 (Meloidogyne incognita; 72 h): 131.82 µg/mL (≈ 601 µM)
LC50 (Meloidogyne incognita; Meloidogyne incognita, 24 h): 94.8 µg/mL (≈ 432 µM)
mortality at 50 µg/mL (Meloidogyne incognita; [2]): 23.8%
mortality at 100 µg/mL (Meloidogyne incognita; [3]): 58.3%
mortality at 400 µg/mL (Meloidogyne incognita; Meloidogyne incognita, 24 h, 400 mg/L): 96.1%
mortality at 50 µg/mL (Meloidogyne incognita; [4]): 22.8%
mortality at 100 µg/mL (Meloidogyne incognita; [5]): 57.8%
mortality at 400 µg/mL (Meloidogyne incognita; Meloidogyne incognita, 24 h, read-out: Corrected mortality, 400 mg/L, 24 h): 96.1%
LC50 (Meloidogyne incognita; Meloidogyne incognita, 48 h): 64.4 µg/mL (≈ 294 µM)
mortality at 50 µg/mL (Meloidogyne incognita; Meloidogyne incognita, 48 h, 50 mg/L): 29.7%
mortality at 100 µg/mL (Meloidogyne incognita; Meloidogyne incognita, 48 h, 100 mg/L): 70.9%
mortality at 200 µg/mL (Meloidogyne incognita; Meloidogyne incognita, 48 h, 200 mg/L): 93.7%
mortality at 400 µg/mL (Meloidogyne incognita; Meloidogyne incognita, 48 h, 400 mg/L): 98.1%
mortality at 50 µg/mL (Meloidogyne incognita; Meloidogyne incognita, 48 h, read-out: Corrected mortality, 50 mg/L, 48 h): 28.7%
mortality at 100 µg/mL (Meloidogyne incognita; Meloidogyne incognita, 48 h, read-out: Corrected mortality, 100 mg/L, 48 h): 70.4%
mortality at 200 µg/mL (Meloidogyne incognita; Meloidogyne incognita, 48 h, read-out: Corrected mortality, 200 mg/L, 48 h): 93.6%
mortality at 400 µg/mL (Meloidogyne incognita; Meloidogyne incognita, 48 h, read-out: Corrected mortality, 400 mg/L, 48 h): 98%
LC50 (Meloidogyne incognita; Meloidogyne incognita, 72 h): 49.6 µg/mL (≈ 226 µM)
mortality at 25 µg/mL (Meloidogyne incognita; Meloidogyne incognita, 72 h, 25 mg/L): 17.9%
mortality at 50 µg/mL (Meloidogyne incognita; Meloidogyne incognita, 72 h, 50 mg/L): 40.6%
mortality at 200 µg/mL (Meloidogyne incognita; Meloidogyne incognita, 72 h, 200 mg/L): 97.3%
mortality at 400 µg/mL (Meloidogyne incognita; Meloidogyne incognita, 72 h, 400 mg/L): 100%
mortality at 25 µg/mL (Meloidogyne incognita; Meloidogyne incognita, 72 h, read-out: Corrected mortality, 25 mg/L, 72 h): 16.3%
mortality at 50 µg/mL (Meloidogyne incognita; Meloidogyne incognita, 72 h, read-out: Corrected mortality, 50 mg/L, 72 h): 39.5%
mortality at 200 µg/mL (Meloidogyne incognita; Meloidogyne incognita, 72 h, read-out: Corrected mortality, 200 mg/L, 72 h): 97.2%
mortality at 400 µg/mL (Meloidogyne incognita; Meloidogyne incognita, 72 h, read-out: Corrected mortality, 400 mg/L, 72 h): 100%
